Reference: ChEMBL document CHEMBL4825757, “Optimization of 4,6-Disubstituted Pyrido[3,2-d]pyrimidines as Dual MNK/PIM Inhibitors to Inhibit Leukemia Cell Growth” (J Med Chem, 2021)
The source made the active and inactive calls. No cut-off for these calls is given here.

Assays:
MOLM-13 [1] = test: Induction of cell cycle arrest in human MOLM-13 cells assessed as sub-G1 phase at 1 uM incubated for 12 hr by propidium iodide based flow cytometry analysis (Rvb= 4.78%); type: functional
[2] = biological target: T1, MAP kinase-interacting serine/threonine-protein kinase 2 (Homo sapiens, UniProt Q9HBH9); test: Inhibition of wild type human partial length MKN2 (G63 to S388 residues) expressed in mammalian expression system by HTRF method
[3] = Metabolic stability in rat liver microsomes assessed as half life preincubated for 10 mins followed by NADPH addition and further incubated upto 60 mins by LC-MS/MS analysis; type: ADME, Microsome; conditions: time <=70 min
[4] = Toxicity in NOD/SCID mouse xenografted with human MOLM-13 cells assessed as abnormal changes in liver at 5 to 10 mg/kg, ip daily for 2 weeks by hematoxylin-eosin staining based histological analysis; type: organism-based; conditions: in vivo, 336 h, dose 5-10 mg/kg
MOLM-13 [5] = test: Induction of cell cycle arrest in human MOLM-13 cells assessed as sub-G1 phase at 2 uM incubated for 12 hr by propidium iodide based flow cytometry analysis (Rvb= 4.78%); type: functional
MOLM-13 [6] = test: Antitumor activity against human MOLM-13 cells xenografted in NOD/SCID mouse assessed as decrease in BAD phosphorylation at 10 mg/kg, ip daily for 2 weeks by western blot analysis; type: functional, organism-based
[7] = biological target: Serine/threonine-protein kinase pim-2 (Homo sapiens, UniProt Q9P1W9); test: Inhibition of recombinant human Pim2 (2 to end residues) using RSRHSSYPAGT as substrate incubated for 40 mins in presence of [gamma33P]ATP by scintillation counting based radiometry assay
[8] = AUC (0 to t) in Sprague Dawley rat at 10 mg/kg, ip measured after 24 hrs; type: ADME, organism-based; parameters: route intraperitoneal, time 24 hrs, dose 10 mg/kg; conditions: in vivo
[9] = biological target: T1, MAP kinase-interacting serine/threonine-protein kinase 2; test: Inhibition of MKN2 (unknown origin) in presence of ATP by HTRF assay
[10] = biological target: T2, Epidermal growth factor receptor (Homo sapiens, UniProt P00533); test: Inhibition of wild-type human partial length EGFR (R669 to V1011 residues) expressed in bacterial expression system at 1 uM by Kinomescan method relative to control
[11] = AUC (0 to infinity) in Sprague Dawley rat at 2 mg/kg, iv measured after 24 hrs; type: ADME, organism-based; parameters: route intravenous, time 24 hrs, dose 2 mg/kg; conditions: in vivo
[12] = biological target: T2, Epidermal growth factor receptor; test: Inhibition of recombinant human EGFR (696 to end residues) using poly(Glu, Tyr) 4:1 as substrate after 40 mins in presence of [gamma-33ATP] by radiometric scintillation counting analysis
[13] = Intrinsic clearance in human liver microsomes preincubated for 10 mins followed by NADPH addition and further incubated upto 60 mins by LC-MS/MS analysis; type: ADME, Microsome; conditions: time <=70 min, read-out: CLH
[14] = biological target: Serine/threonine-protein kinase pim-3 (Homo sapiens, UniProt Q86V86); test: Inhibition of wild-type human partial length PIM3 (G16 to A317 residues) expressed in bacterial expression system at 1 uM by Kinomescan method relative to control
[15] = Toxicity in NOD/SCID mouse xenografted with human MOLM-13 cells assessed as abnormal changes in kidney at 5 to 10 mg/kg, ip daily for 2 weeks by hematoxylin-eosin staining based histological analysis; type: organism-based; conditions: in vivo, 336 h, dose 5-10 mg/kg
[16] = Bioavailability in Sprague Dawley rat at 10 mg/kg, ip measured after 24 hrs; type: ADME, organism-based; conditions: in vivo
[17] = biological target: T3, MAP kinase-interacting serine/threonine-protein kinase 1 (Homo sapiens, UniProt Q9BUB5); test: Inhibition of wild type human full length MKN1 (M1 to L424) expressed in mammalian expression system by HTRF method
Target sequence in this assay (Q9BUB5 whole entry): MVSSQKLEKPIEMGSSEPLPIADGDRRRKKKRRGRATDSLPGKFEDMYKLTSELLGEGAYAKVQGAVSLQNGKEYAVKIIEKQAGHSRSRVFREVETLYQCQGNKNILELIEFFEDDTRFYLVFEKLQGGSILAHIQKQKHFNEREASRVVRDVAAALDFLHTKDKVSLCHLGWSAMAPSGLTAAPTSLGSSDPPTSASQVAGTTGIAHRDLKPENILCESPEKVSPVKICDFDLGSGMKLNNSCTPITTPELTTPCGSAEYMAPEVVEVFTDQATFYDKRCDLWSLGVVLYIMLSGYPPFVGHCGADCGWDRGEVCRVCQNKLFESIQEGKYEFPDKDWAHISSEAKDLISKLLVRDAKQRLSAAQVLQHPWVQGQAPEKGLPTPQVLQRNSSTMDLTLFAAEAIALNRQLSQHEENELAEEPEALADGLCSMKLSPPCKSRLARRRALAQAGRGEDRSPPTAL

MOLM-13 [18] = test: Induction of apoptosis in human MOLM-13 cells assessed as live cells at 2 uM incubated for 12 hrs by annexin-V and propidium iodide staining based flow cytometry analysis (reference value: 91.49%); type: functional
MOLM-13 [19] = test: Induction of apoptosis in human MOLM-13 cells assessed as necrotic cells at 2 uM incubated for 12 hrs by annexin-V and propidium iodide staining based flow cytometry analysis (reference value: 0.06%); type: functional
[20] = Tmax in Sprague Dawley rat at 10 mg/kg, ip measured after 24 hrs; type: ADME, organism-based; conditions: in vivo
[21] = biological target: T4, Serine/threonine-protein kinase PIM (Homo sapiens) (UniProt P11309+Q9P1W9+Q86V86); test: Inhibition of PIM in human MOLM-13 cells assessed as reduction in phosphorylated 4EBP1 at 1 to 2 uM incubated for 12 hrs by western blot analysis; type: cell-based; conditions: dose 1-2 µM
[22] = biological target: T4, Serine/threonine-protein kinase PIM (Homo sapiens); test: Inhibition of PIM in human MOLM-13 cells assessed as reduction of BAD phosphorylation at 1 to 2 uM incubated for 12 hrs by western blot analysis; type: cell-based; conditions: dose 1-2 µM
[23] = Tmax in Sprague Dawley rat at 2 mg/kg, iv measured after 24 hrs; type: ADME, organism-based; conditions: in vivo
[24] = biological target: T3, MAP kinase-interacting serine/threonine-protein kinase 1; test: Inhibition of MKN1 (unknown origin) in presence of ATP by HTRF assay
Target sequence in this assay (Q9BUB5 whole entry): as above

[25] = AUC (0 to infinity) in Sprague Dawley rat at 10 mg/kg, ip measured after 24 hrs; type: ADME, organism-based; parameters: route intraperitoneal, dose 10 mg/kg, time 24 hrs; conditions: in vivo
[26] = AUC (0 to t) in Sprague Dawley rat at 2 mg/kg, iv measured after 24 hrs; type: ADME, organism-based; parameters: route intravenous, time 24 hrs, dose 2 mg/kg; conditions: in vivo
MOLM-13 [27] = test: Downregulation of cyclin-D1 levels in human MOLM-13 cells at 1 to 2 uM incubated for 12 hrs by western blot analysis; type: functional, cell-based; conditions: dose 1-2 µM
[28] = biological target: T3, MAP kinase-interacting serine/threonine-protein kinase 1; test: Inhibition of MKN1 (unknown origin) at 1 uM in presence of ATP by HTRF assay
Target sequence in this assay (Q9BUB5 whole entry, looked up): as the sequence (Q9BUB5 whole entry) above

[29] = Intrinsic clearance in rat liver microsomes preincubated for 10 mins followed by NADPH addition and further incubated upto 60 mins by LC-MS/MS analysis; type: ADME, Microsome; conditions: time <=70 min, read-out: CLH
[30] = Drug concentration in Sprague Dawley rat at 2 mg/kg, iv measured after 24 hrs; type: ADME, organism-based; conditions: in vivo, read-out: Ct
MOLM-13 [31] = test: Induction of apoptosis in human MOLM-13 cells assessed as early apoptotic cells at 1 uM incubated for 12 hrs by annexin-V and propidium iodide staining based flow cytometry analysis (reference value: 5.40%); type: functional
[32] = biological target: MAP kinase-interacting serine/threonine-protein kinase 1/2 (Homo sapiens) (UniProt Q9HBH9+Q9BUB5); test: Inhibition of MNK1/MNK2 in human MOLM-13 cells assessed as reduction in eIF4E phosphorylation at 1 to 2 uM incubated for 12 hrs by western blot analysis; type: cell-based; conditions: dose 1-2 µM
[33] = Toxicity in NOD/SCID mouse xenografted with human MOLM-13 cells assessed as decrease in body weight at 5 to 10 mg/kg, ip daily for 2 weeks; type: organism-based; conditions: in vivo, 336 h, dose 5-10 mg/kg
HL-60 = test: Antiproliferative activity against human HL-60 cells assessed as reduction of cell viability incubated for 72 hrs by trypan blue staining based cell counting analysis; type: functional
MOLM-13 [34] = test: Downregulation of c-myc levels in human MOLM-13 cells at 1 to 2 uM incubated for 12 hrs by western blot analysis; type: functional, cell-based; conditions: dose 1-2 µM
[35] = biological target: T4, Serine/threonine-protein kinase PIM (Homo sapiens); test: Inhibition of PIM in human K562 cells assessed as reduction in phosphorylated 4EBP1 at 1 to 2 uM incubated for 24 hrs by western blot analysis; type: cell-based; conditions: dose 1-2 µM
MOLM-13 [36] = test: Induction of apoptosis in human MOLM-13 cells assessed as necrotic cells at 1 uM incubated for 12 hrs by annexin-V and propidium iodide staining based flow cytometry analysis (reference value: 0.06%); type: functional

T4 sequence (P11309 whole entry, looked up): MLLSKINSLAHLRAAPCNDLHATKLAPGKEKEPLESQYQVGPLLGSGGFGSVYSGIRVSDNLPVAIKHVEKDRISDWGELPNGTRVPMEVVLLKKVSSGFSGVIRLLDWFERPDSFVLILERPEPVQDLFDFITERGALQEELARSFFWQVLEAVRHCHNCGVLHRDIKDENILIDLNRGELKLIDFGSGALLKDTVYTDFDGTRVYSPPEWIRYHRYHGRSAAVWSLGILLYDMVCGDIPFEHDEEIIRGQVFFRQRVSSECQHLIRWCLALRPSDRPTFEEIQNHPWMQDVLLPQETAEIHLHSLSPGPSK
T4 sequence (Q9P1W9 whole entry, looked up): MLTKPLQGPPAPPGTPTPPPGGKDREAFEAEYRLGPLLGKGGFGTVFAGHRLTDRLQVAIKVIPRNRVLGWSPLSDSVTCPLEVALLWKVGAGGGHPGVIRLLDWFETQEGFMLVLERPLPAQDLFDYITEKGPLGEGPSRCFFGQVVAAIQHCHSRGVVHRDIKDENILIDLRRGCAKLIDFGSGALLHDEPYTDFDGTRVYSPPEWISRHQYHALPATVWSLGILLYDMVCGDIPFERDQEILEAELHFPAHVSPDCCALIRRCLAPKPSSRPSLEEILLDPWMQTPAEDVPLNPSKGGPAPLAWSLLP
T1 sequence (Q9HBH9 whole entry, the tested form may be a part): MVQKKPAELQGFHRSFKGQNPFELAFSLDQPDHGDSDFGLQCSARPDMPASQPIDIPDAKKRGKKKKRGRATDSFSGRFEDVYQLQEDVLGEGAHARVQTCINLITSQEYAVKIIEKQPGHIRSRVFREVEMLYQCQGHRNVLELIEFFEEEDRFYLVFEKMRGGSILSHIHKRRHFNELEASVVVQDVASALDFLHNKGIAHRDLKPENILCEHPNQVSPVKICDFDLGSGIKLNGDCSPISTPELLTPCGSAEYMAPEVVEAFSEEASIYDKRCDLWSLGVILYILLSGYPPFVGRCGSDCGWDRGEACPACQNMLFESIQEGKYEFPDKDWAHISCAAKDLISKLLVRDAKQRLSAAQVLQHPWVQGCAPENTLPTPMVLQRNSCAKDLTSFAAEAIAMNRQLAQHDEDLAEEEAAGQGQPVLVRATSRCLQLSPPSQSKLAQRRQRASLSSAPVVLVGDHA
T2 sequence (P00533 whole entry, the tested form may be a part): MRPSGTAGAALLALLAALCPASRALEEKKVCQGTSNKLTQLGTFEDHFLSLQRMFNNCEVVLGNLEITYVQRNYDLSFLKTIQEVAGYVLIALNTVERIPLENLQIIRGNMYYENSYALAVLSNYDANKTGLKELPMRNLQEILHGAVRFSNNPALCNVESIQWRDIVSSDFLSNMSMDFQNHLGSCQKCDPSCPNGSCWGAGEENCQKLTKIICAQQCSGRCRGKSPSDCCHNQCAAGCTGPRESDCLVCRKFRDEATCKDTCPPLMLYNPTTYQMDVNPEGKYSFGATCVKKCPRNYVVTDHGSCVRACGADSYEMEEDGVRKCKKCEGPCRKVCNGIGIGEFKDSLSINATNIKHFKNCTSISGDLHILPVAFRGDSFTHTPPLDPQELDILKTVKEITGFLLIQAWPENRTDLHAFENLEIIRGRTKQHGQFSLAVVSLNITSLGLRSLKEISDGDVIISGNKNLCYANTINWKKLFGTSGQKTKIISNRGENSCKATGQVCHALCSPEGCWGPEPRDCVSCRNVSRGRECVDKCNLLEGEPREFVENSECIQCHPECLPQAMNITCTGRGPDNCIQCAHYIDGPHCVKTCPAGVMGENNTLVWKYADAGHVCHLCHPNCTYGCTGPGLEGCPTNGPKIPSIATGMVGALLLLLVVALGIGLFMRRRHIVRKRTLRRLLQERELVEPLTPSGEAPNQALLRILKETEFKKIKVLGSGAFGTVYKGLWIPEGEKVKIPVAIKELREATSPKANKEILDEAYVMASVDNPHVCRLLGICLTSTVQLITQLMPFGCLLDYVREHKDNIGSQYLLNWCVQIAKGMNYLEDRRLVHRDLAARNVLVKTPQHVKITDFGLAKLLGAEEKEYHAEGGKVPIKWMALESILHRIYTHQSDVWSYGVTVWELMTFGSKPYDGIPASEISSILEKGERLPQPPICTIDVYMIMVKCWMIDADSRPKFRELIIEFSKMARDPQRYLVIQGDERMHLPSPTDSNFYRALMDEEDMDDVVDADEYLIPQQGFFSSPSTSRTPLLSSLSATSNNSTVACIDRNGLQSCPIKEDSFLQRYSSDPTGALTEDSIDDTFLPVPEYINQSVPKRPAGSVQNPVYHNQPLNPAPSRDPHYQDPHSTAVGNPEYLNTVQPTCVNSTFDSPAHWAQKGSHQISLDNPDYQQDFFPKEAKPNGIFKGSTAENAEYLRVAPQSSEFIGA
Serine/threonine-protein kinase pim-2, sequence (Q9P1W9 whole entry): as the sequence (Q9P1W9 whole entry, looked up) above

Q: What does the source list for `CC(C)Oc1cc(F)ccc1Nc1ncnc2ccc(-c3ccc(C(=O)N4CCNCC4)cc3)nc12`?
A: Activity (MOLM-13 [1]): 11.81%; IC50 [2]: 7 nM; half-life [3]: 36.1 min; Activity [4]: Non-Toxic; Activity (MOLM-13 [5]): 32.41%; Activity (MOLM-13 [6]): Active; IC50 [7]: 232 nM; AUC(0-t) at 24 h [8]: 1660 ng·h/mL; IC50 [9]: 7 nM; inhibition [10]: 73%; AUC(0-inf) [11]: 1720 ng·h/mL; IC50 [12]: 1970 nM; CLint scaled [13]: 8.53 mL/min/kg; inhibition [14]: 90%; Activity [15]: Non-Toxic; bioavailability [16]: 20.6%; IC50 [17]: 1 nM; Activity (MOLM-13 [18]): 61.5%; Activity (MOLM-13 [19]): 0.73%; Tmax [20]: 40.2 min; inhibition [21]: Active; inhibition [22]: Active; Tmax [23]: 4.98 min; IC50 [24]: 1 nM; AUC(0-inf) [25]: 1680 ng·h/mL; AUC(0-t) at 24 h [26]: 1610 ng·h/mL; Activity (MOLM-13 [27]): Active; inhibition [28]: 97%; CLint scaled [29]: 68.8 mL/min/kg; concentration at 24 h [30]: 765 ng/mL; Activity (MOLM-13 [31]): 6.83%; inhibition [32]: Active; Activity [33]: Non-Toxic; GI50 (HL-60): 1500 nM; Activity (MOLM-13 [34]): Active; inhibition [35]: Dose-Dependent Effect; Activity (MOLM-13 [36]): 0.11%
